Experimental data reported in ChEMBL document CHEMBL5506010, “Butyrylcholinesterase-Activated Near-Infrared Fluorogenic Probe for In Vivo Theranostics of Alzheimer's Disease” (J Med Chem, 2024).
Active and inactive are the calls of the source. No cut-off for these calls is given here.

What was measured:
[1] = Drug uptake in wildtype mouse brain assessed as increase in fluorescence at 100 uM, iv preadministered with tacrine for 4 hrs followed by compound administration by fluorescence scanning analysis; assay type: ADME, organism-based; settings: in vivo
[2] = Drug uptake in brain of 6 weeks old AD-mouse model assessed as increase in fluorescence at 100 uM, iv preadministered with tacrine for 4 hrs followed by compound administration by fluorescence scanning analysis; assay type: ADME, organism-based; settings: in vivo
Mus musculus [3] = assay: Antialzheimer activity in APP/PS1 transgenic AD mouse model assessed as improvement in memory administered intravenously once every 2 days for 10 times followed by morris water maze training from day 21 to 25 and measured on day 26 by Morris water maze test; assay type: functional, organism-based; settings: route iv, time 26.0 day
Homo sapiens [4] = species: Homo sapiens; assay: Binding affinity to lysozyme (unknown origin) by fluorescence analysis
Mus musculus [5] = assay: Antialzheimer activity in APP/PS1 transgenic AD mouse model assessed as increase in alteration performance administered intravenously once every 2 days for 10 times and measured on day 26 by Y maze test; assay type: functional, organism-based; settings: route iv, time 26.0 day
Homo sapiens [6] = species: Homo sapiens; assay: Binding affinity to ALP (unknown origin) by fluorescence analysis
[7] = Stability of compound in male ICR mouse plasma at 100 uM, iv measured after 30 mins by fluorescence microplate reader; assay type: ADME, organism-based; settings: 0.5 h
[8] = Stability of compound in PBS at pH 7.4 measured after 72 hrs by HPLC analysis; assay type: physicochemical; settings: buffer, pH 7.4, 72 h
Cholinesterase [9] = target: T1, Cholinesterase (Homo sapiens, UniProt P06276); assay: Binding affinity to BChE (unknown origin) assessed as enzyme mediated compound hydrolysis measured after 5 min by HPLC analysis relative to control; set-up: scale not given: the % may be the effect or the level left
Cholinesterase [10] = target: T1, Cholinesterase; assay: Binding affinity to BChE in human SH-SY5Y cells at 10 uM incubated for 1 hrs by fluorescence based confocal laser scanning microscopic analysis; assay type: cell-based
[11] = Toxicity in APP/PS1 transgenic AD mouse model assessed as heart damage administered intravenously once every 2 days for 10 times and measured on day 30 by H and E staining based analysis; assay type: tissue-based; settings: in vivo, iv, 720 h, time 30 day
SH-SY5Y [12] = assay: Neuroprotective activity against amyloid-beta (1 to 42)-induced cell death in human SH-SY5Y cells assessed as increase in cell survival preincubated with compound for 2 hrs followed by amyloid beta (1 to 42) addition and measured after 24 hrs by MTT assay; assay type: functional, cell-based; settings: dose 10-50 µM, time 26.0 hrs
[13] = Toxicity in APP/PS1 transgenic AD mouse model assessed as kidney damage administered intravenously once every 2 days for 10 times and measured on day 30 by H and E staining based analysis; assay type: tissue-based; settings: in vivo, iv, 720 h, time 30 day
SH-SY5Y [14] = assay: Neuroprotective activity against amyloid-beta (1 to 42)-induced human SH-SY5Y cells assessed as decrease in amyloid beta (1 to 42) level in culture medium at 10 to 20 uM incubated for 24 hrs by ELISA; assay type: functional, cell-based; settings: dose 10-20 µM
[15] = Stability of compound in male ICR mouse brain at 100 uM, iv measured at 5 to 60 mins by fluorescence microplate reader; assay type: ADME, organism-based; settings: time 5-60 min
[16] = Toxicity in APP/PS1 transgenic AD mouse model assessed as effect on body weight administered intravenously once every 2 days for 10 times and measured on day 30; settings: in vivo, iv, 720 h, time 30 day
Mus musculus [17] = assay: Antialzheimer activity in APP/PS1 transgenic AD mouse model assessed as increase in ACh level administered intravenously once every 2 days for 10 times and measured on day 30 by ELISA; assay type: functional, organism-based; settings: route iv, time 30.0 day
[18] = Toxicity in APP/PS1 transgenic AD mouse model assessed as lung damage administered intravenously once every 2 days for 10 times and measured on day 30 by H and E staining based analysis; assay type: tissue-based; settings: in vivo, iv, 720 h, time 30 day
Mus musculus [19] = assay: Antialzheimer activity in APP/PS1 transgenic AD mouse model assessed as improvement in memory administered intravenously once every 2 days for 10 times and measured on day 26 by Y maze test; assay type: functional, organism-based; settings: route iv, time 26.0 day
Mus musculus [20] = assay: Antialzheimer activity in APP/PS1 transgenic AD mouse model assessed as decrease in amyloid beta (1 to 42) level administered intravenously once every 2 days for 10 times and measured on day 30 by ELISA; assay type: functional, organism-based; settings: route iv, time 30.0 day
Acetylcholinesterase = Acetylcholinesterase (Homo sapiens, UniProt P22303); assay: Binding affinity to AChE (unknown origin) by fluorescence analysis
PC-12 [21] = assay: Binding affinity to BChE in rat PC-12 cells assessed as increase in fluorescence intensity preincubated with tacrine for 24 hrs followed by compound addition and measured after 1 hrs by fluorescence based confocal laser scanning microscopic analysis; assay type: cell-based
[22] = Drug uptake in brain of 8 months old AD-mouse model assessed as increase in fluorescence at 100 uM, iv preadministered with tacrine for 4 hrs followed by compound administration by fluorescence scanning analysis; assay type: ADME, organism-based; settings: in vivo
[23] = target: Cholinesterase (Mus musculus) (UniProt Q03311); assay: Binding affinity to BChE in mouse HT-22 cells assessed as increase in fluorescence at 10 uM incubated for 1 hrs in presence of DCF by laser confocal imaging analysis; assay type: cell-based
Mus musculus [24] = assay: Antialzheimer activity in APP/PS1 transgenic AD mouse model assessed as improvement in recognition index for novel objects administered intravenously once every 2 days for 10 times and measured on day 28 by Novel object recognition test; assay type: functional, organism-based; settings: route iv, time 28.0 day
[25] = Drug uptake in HEK293T cells transfected with BChE siRNA assessed as increase in fluorescence intensity by fluorescence based confocal laser scanning microscopic analysis; assay type: ADME, cell-based; settings: human, hek-293t
[26] = Stability of compound at pH 12 measured within 3 mins by microplate reader analysis; assay type: physicochemical; settings: buffer, pH 12, 0.05 h
HT-22 = assay: Inhibition of H2O2-induced ROS release in mouse HT-22 cells assessed as decrease in green fluorescence at 1 to 10 uM preincubated for 1 hrs followed by H2O2 addition and measured after 24 hrs by DCFH-DA based confocal laser scanning microscopic analysis; assay type: functional, cell-based; settings: dose 1-10 µM, time 25.0 hrs
Homo sapiens [27] = species: Homo sapiens; assay: Binding affinity to carboxylesterase (unknown origin) by fluorescence analysis
Cholinesterase [28] = target: T1, Cholinesterase; assay: Binding affinity to BChE (unknown origin) in PBS assessed as Michaelis-menten constant by fluorometric method
[29] = target: Cholinesterase (Mus musculus) (UniProt Q03311); assay: Binding affinity to BChE in mouse HT-22 cells at 10 uM incubated for 1 hrs by fluorescence based confocal laser scanning microscopic analysis; assay type: cell-based
PC-12 [30] = assay: Binding affinity to BChE in rat PC-12 cells assessed as increase in fluorescence intensity incubated for 1 hrs by fluorescence based confocal laser scanning microscopic analysis; assay type: cell-based; settings: dose 1-10 µM
Cholinesterase [31] = target: T1, Cholinesterase; assay: Binding affinity to BChE (unknown origin) in PBS assessed as maximum initial reaction rate by fluorometric method
PC-12 [32] = assay: Binding affinity to BChE in rat PC-12 cells at 10 uM incubated for 1 hrs by fluorescence based confocal laser scanning microscopic analysis; assay type: cell-based
PC-12 [33] = assay: Binding affinity to BChE in rat PC-12 cells assessed as increase in fluorescence intensity at 10 uM incubated for 24 hrs by fluorescence based confocal laser scanning microscopic analysis; assay type: cell-based
[34] = Selectivity ratio of fluorescence intensity for binding affinity to AChE (unknown origin) in PBS to fluorescence intensity for binding affinity to BChE (unknown origin) in PBS
SH-SY5Y [35] = assay: Neuroprotective activity against amyloid-beta (1 to 42)-induced human SH-SY5Y cells assessed as decrease in amyloid beta (1 to 42) level in cell lysate at 10 to 20 uM incubated for 24 hrs by ELISA; assay type: functional, cell-based; settings: dose 10-20 µM

T1 sequence (P06276 whole entry): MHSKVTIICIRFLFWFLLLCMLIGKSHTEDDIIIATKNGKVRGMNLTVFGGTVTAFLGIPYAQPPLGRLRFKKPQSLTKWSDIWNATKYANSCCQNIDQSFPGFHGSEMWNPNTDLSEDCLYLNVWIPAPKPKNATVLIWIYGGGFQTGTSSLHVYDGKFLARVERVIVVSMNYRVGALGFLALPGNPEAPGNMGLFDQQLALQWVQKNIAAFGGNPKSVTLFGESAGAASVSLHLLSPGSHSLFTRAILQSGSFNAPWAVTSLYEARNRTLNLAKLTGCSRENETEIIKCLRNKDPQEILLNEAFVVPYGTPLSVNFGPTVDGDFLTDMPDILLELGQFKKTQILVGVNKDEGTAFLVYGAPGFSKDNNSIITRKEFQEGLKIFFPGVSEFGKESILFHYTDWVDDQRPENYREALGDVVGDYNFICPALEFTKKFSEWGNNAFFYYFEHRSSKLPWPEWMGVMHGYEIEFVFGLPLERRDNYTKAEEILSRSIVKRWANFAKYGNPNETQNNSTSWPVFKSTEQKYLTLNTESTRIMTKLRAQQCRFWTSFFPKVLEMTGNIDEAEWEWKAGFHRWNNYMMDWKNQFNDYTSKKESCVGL
Sequence of Cholinesterase (Mus musculus) (Q03311 whole entry): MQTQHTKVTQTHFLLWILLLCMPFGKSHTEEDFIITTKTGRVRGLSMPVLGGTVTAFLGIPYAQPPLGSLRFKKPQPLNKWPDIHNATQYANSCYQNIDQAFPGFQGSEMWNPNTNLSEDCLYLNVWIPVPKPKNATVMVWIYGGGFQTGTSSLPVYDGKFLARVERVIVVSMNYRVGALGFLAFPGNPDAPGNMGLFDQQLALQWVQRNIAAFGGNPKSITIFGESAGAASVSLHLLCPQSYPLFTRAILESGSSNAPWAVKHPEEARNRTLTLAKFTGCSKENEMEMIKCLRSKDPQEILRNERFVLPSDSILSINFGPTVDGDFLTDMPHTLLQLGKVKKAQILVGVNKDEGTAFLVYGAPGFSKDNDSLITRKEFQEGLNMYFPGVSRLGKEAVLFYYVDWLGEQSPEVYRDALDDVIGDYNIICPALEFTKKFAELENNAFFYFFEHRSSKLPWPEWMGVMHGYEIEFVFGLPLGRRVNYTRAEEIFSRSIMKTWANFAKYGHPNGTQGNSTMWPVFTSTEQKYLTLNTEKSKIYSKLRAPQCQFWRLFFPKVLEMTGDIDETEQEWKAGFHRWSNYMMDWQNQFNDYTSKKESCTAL
Sequence of Acetylcholinesterase (P22303 whole entry): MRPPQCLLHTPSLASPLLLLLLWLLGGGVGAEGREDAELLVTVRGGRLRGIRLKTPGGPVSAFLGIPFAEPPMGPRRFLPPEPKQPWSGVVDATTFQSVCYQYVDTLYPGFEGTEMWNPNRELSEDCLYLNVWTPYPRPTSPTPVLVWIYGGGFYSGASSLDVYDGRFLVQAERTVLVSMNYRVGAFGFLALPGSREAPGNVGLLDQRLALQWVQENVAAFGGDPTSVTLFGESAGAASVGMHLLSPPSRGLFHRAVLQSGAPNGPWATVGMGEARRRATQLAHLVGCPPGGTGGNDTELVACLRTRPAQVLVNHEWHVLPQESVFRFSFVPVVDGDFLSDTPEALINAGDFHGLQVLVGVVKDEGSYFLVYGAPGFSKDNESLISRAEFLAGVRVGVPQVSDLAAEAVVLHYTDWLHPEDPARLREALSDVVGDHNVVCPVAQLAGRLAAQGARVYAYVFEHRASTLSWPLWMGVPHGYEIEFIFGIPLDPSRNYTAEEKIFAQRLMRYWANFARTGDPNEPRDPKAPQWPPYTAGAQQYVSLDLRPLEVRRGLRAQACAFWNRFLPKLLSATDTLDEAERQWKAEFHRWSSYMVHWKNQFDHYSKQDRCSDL

## CCN(CC)Cc1ccccc1CNC(=O)c1cccc(NC(=O)c2cccc(C(=O)NCCn3cc(CCC[N+]4=C(/C=C/C5=C6Oc7cc(OC(=O)C8CC8)ccc7C=C6CCC5)C(C)(C)c5ccccc54)nn3)c2)c1.[I-]
[1]
  Drug uptake: Not Active
[2]
  Drug uptake: Not Active
Mus musculus [3]
  Activity: Active
Homo sapiens [4]
  Activity: inactive
Mus musculus [5]
  Activity: Active
Homo sapiens [6]
  Activity: inactive
[7]
  Stability: Stable
[8]
  Stability: Stable
Cholinesterase [9]
  Activity: > 90%
Cholinesterase [10]
  Activity: Active
[11]
  Activity: Non-Toxic
SH-SY5Y [12]
  Activity: Dose-Dependent Effect
[13]
  Activity: Non-Toxic
SH-SY5Y [14]
  Activity: Active
[15]
  Stability: Stable
[16]
  Activity: Non-Toxic
Mus musculus [17]
  Activity: Active
[18]
  Activity: Non-Toxic
Mus musculus [19]
  Activity: inactive
Mus musculus [20]
  Activity: Active
Acetylcholinesterase
  Activity: inactive
PC-12 [21]
  Activity: inactive
[22]
  Drug uptake: Not Active
[23]
  Activity: inactive
Mus musculus [24]
  Activity: Active
[25]
  Drug uptake: Not Active
[26]
  Stability: Unstable
HT-22
  inhibition: Active
Homo sapiens [27]
  Activity: inactive
Cholinesterase [28]
  Activity: 12.9 µM
[29]
  Activity: Active
PC-12 [30]
  Activity: Dose-Dependent Effect
Cholinesterase [31]
  Activity: 3.02 µM/min
PC-12 [32]
  Activity: Active
PC-12 [33]
  Activity: Active
[34]
  Selectivity ratio: 22.8
SH-SY5Y [35]
  Activity: Active
